From US11530200B2, “Compounds” (Inflazome Limited, priority 2018, dated 2022)
Structures can show the parent of a compound that is named as a salt.

Each molecule was assayed against NLRP3 (Homo sapiens (Human), UniProt Q96P20) (assay: THP-1 cells pyroptosis assay (LPS priming, nigericin, resazurin readout)). Settings: 1.0 μg/ml LPS, nigericin 5 μM, NLRP3 inhibitory activity.
Format: cell-based
Experimental: THP-1 cells (ATCC #TIB-202) were grown in RPMI containing L-glutamine (Gibco #11835) supplemented with 1 mM sodium pyruvate (Sigma #S8636) and penicillin (100 units/ml)/streptomycin (0.1 mg/ml) (Sigma #P4333) in 10% Fetal Bovine Serum (FBS) (Sigma #F0804). The cells were routinely passaged and grown to confluency (10^6 cells/ml). On the day of the experiment, THP-1 cells were harvested and resuspended into RPMI medium (without FBS). The cells were then counted and viability (>90%) checked by Trypan blue (Sigma #T8154). Appropriate dilutions were made to give a concentration of 625,000 cells/ml. To this diluted cell solution was added LPS (Sigma #L4524) to give a 1 μg/ml Final Assay Concentration (FAC). 40 μl of the final preparation was aliquoted into each well of a 96-well plate. The plate thus prepared was used for compound screening. The following method step-by-step assay was followed for compound screening. • 1. Seed THP-1 cells (25,000 cells/well) containing 1.0 μg/ml LPS in 40 μl of RPMI medium (without FBS) in 96-well, black walled, clear bottom cell culture plates coated with poly-D-lysine (VWR #734-0317) • 2. Add […] compound (8 points half-log dilution, with […] top dose) or vehicle (DMSO 0.1% FAC) to the appropriate wells • 3. Incubate for 3 hrs at 37° C., 5% CO2 • 4. Add 5 μl nigericin (Sigma #N7143) (FAC 5 μM) to all wells • 5. Incubate for 1 hr at 37° C., 5% CO2 • 6. At the end of the incubation period, spin plates at 300×g for 3 mins and remove supernatant • 7. Then add 50 μl of resazurin (Sigma #R7017) (FAC 100 μM resazurin in RPMI medium without FBS) and incubate plates for a further 1-2 hrs at 37° C. and 5% CO2 • 8. Plates were read in an Envision reader at Ex 560 nm and Em 590 nm • 9. IC50 data is fitted to a non-linear regression equation (log inhibitor vs response-variable slope 4-parameters) The results of the pyroptosis assay are summarised in Table 1 below as THP IC50.

Chain of NLRP3 (Q96P20 whole entry): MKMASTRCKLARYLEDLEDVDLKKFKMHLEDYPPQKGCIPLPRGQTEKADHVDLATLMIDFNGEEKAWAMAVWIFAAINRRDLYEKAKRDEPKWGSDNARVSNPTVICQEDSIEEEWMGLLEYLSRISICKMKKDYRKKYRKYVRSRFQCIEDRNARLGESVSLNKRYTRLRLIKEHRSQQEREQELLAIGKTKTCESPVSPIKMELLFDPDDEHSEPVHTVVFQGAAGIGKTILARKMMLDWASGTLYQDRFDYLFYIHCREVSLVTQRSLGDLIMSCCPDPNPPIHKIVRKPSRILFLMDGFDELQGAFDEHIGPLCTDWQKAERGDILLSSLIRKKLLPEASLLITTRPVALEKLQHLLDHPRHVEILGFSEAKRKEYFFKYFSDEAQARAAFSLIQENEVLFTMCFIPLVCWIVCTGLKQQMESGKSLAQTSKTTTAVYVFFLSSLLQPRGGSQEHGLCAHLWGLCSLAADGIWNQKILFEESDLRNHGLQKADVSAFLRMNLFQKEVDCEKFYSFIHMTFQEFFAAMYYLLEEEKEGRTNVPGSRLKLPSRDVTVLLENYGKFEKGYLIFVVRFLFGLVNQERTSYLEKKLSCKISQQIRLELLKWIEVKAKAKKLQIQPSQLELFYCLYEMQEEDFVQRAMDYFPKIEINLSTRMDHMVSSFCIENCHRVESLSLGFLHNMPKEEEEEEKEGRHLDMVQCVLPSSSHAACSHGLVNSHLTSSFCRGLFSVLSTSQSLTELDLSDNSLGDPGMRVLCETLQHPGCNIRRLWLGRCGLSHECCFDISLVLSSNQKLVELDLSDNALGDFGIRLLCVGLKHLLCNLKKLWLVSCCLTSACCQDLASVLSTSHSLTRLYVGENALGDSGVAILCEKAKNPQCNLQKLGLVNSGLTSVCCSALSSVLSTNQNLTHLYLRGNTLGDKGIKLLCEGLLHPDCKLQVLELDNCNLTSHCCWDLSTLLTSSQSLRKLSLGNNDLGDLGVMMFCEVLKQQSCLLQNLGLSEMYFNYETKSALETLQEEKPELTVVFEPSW

Structure (SMILES)	IC50 [µM]
COc1cc(-c2ccc3c(c2CC(=O)NS(=O)(=O)c2ccn(C4CC4)n2)CCC3)ccn1 [Example 17, N-((1-Cyclopropyl-1H-pyrazol-3-yl)sulfonyl)-2-(5-(2-methoxypyridin-4-yl)-2,3-dihydro-1H-inden-4-yl)acetamide]	1 to 5
COC1(c2cc(S(=O)(=O)NC(=O)Cc3c4c(cc5c3CCC5)CCC4)nn2C2CC2)COC1 [Example 14, N-((1-Cyclopropyl-5-(3-methoxyoxetan-3-yl)-1H-pyrazol-3-yl)sulfonyl)-2-(1,2,3,5,6,7-hexahydro-s-indacen-4-yl)acetamide]	1 to 5
CC(c1cc(S(=O)(=O)NC(=O)Cc2c3c(cc4c2CCC4)CCC3)nn1C1CC1)N(C)C (stereo not drawn) [Example 15, N-((1-Cyclopropyl-5-(1-(dimethylamino)ethyl)-1H-pyrazol-3-yl)sulfonyl)-2-(1,2,3,5,6,7-hexahydro-s-indacen-4-yl)acetamide]	1 to 5
COc1cc(-c2cc(F)cc(C(C)C)c2CC(=O)NS(=O)(=O)c2cnn(C3CC3)n2)ccn1 [Example 20, N-((2-Cyclopropyl-2H-1,2,3-triazol-4-yl)sulfonyl)-2-(4-fluoro-2-isopropyl-6-(2-methoxypyridin-4-yl)phenyl)acetamide]	1 to 5
CC(C)c1cc(F)cc(C(C)C)c1CC(=O)NS(=O)(=O)c1cn(C2CC2)cn1 [Example 28, N-((1-Cyclopropyl-1H-imidazol-4-yl)sulfonyl)-2-(4-fluoro-2,6-diisopropylphenyl)acetamide]	1 to 5
COc1cc(-c2ccc3c(c2CC(=O)NS(=O)(=O)c2cnn(C4CC4)c2)CCC3)ccn1 [Example 23, N-((1-Cyclopropyl-H-pyrazol-4-yl)sulfonyl)-2-(5-(2-methoxypyridin-4-yl)-2,3-dihydro-1H-inden-4-yl)acetamide]	1 to 5
CC(C)c1cc(F)cc(-c2cccnc2)c1CC(=O)NS(=O)(=O)c1ncn(C2CC2)n1 [Example 22, N-((1-Cyclopropyl-1H-1,2,4-triazol-3-yl)sulfonyl)-2-(4-fluoro-2-isopropyl-6-(pyridin-3-yl)phenyl)acetamide]	1 to 5
CC(C)c1cc(F)cc(-c2ccnc(C#N)c2)c1CC(=O)NS(=O)(=O)c1cn(C2CC2)cn1 [Example 31, 2-(2-(2-Cyanopyridin-4-yl)-4-fluoro-6-isopropylphenyl)-N-((1-cyclopropyl-1H-imidazol-4-yl)sulfonyl)acetamide]	5 to 10
CC(C)c1cc(F)cc(C(C)C)c1CC(=O)NS(=O)(=O)c1cnn(C2CC2)n1 [Example 26, N-((2-Cyclopropyl-2H-1,2,3-triazol-4-yl)sulfonyl)-2-(4-fluoro-2,6-diisopropylphenyl)acetamide]	1 to 5
CC(C)c1cc(F)cc(-c2cccnc2)c1CC(=O)NS(=O)(=O)c1cnn(C2CC2)n1 [Example 27, N-((2-Cyclopropyl-2H-1,2,3-triazol-4-yl)sulfonyl)-2-(4-fluoro-2-isopropyl-6-(pyridin-3-yl)phenyl)acetamide]	1 to 5
COC1(c2cc(S(=O)(=O)NC(=O)Cc3c(C(C)C)cc(F)cc3C(C)C)nn2C(C)C)COC1 [Example 29, 2-(4-Fluoro-2,6-diisopropylphenyl)-N-((1-isopropyl-5-(3-methoxyoxetan-3-yl)-1H-pyrazol-3-yl)sulfonyl)acetamide]	1 to 5
CC(C)c1cc(F)cc(C(C)C)c1CC(=O)NS(=O)(=O)c1cc(CN(C)C)n(C2CC2)n1 [Example 16, N-((1-Cyclopropyl-5-((dimethylamino)methyl)-1H-pyrazol-3-yl)sulfonyl)-2-(4-fluoro-2,6-diisopropylphenyl)acetamide]	1 to 5
CC(C)c1cc(F)cc(-c2ccncc2)c1CC(=O)NS(=O)(=O)c1ccn(C2CC2)n1 [Example 2, N-((1-Cyclopropyl-1H-pyrazol-3-yl)sulfonyl)-2-(4-fluoro-2-isopropyl-6-(pyridin-4-yl)phenyl)acetamide, potassium salt]	≤ 1
COC1(c2cc(S(=O)(=O)NC(=O)Cc3c4c(cc5c3CCC5)CCC4)nn2C(C)C)COC1 [Example 12, 2-(1,2,3,5,6,7-Hexahydro-s-indacen-4-yl)-N-((1-isopropyl-5-(3-methoxyoxetan-3-yl)-1H-pyrazol-3-yl)sulfonyl)acetamide]	1 to 5
N#Cc1cc(-c2ccc3c(c2CC(=O)NS(=O)(=O)c2ccn(C4CC4)n2)CCC3)ccn1 [Example 1, 2-(5-(2-Cyanopyridin-4-yl)-2,3-dihydro-1H-inden-4-yl)-N-((1-cyclopropyl-1H-pyrazol-3-yl)sulfonyl)acetamide]	1 to 5
COc1cc(-c2cc(F)cc(C(C)C)c2CC(=O)NS(=O)(=O)c2ccn(C3CC3)n2)ccn1 [Example 4, N-((1-Cyclopropyl-1H-pyrazol-3-yl)sulfonyl)-2-(4-fluoro-2-isopropyl-6-(2-methoxypyridin-4-yl)phenyl)acetamide]	1 to 5
N#Cc1cc(-c2ccc3c(c2CC(=O)NS(=O)(=O)c2cnn(C4CC4)n2)CCC3)ccn1 [Example 8, 2-(5-(2-Cyanopyridin-4-yl)-2,3-dihydro-1H-inden-4-yl)-N-((2-cyclopropyl-2H-1,2,3-triazol-4-yl)sulfonyl)acetamide]	1 to 5
COC1(c2cc(S(=O)(=O)NC(=O)Cc3c(-c4ccnc(C#N)c4)ccc4c3CCC4)nn2C(C)C)COC1 [Example 13, 2-(5-(2-Cyanopyridin-4-yl)-2,3-dihydro-1H-inden-4-yl)-N-((1-isopropyl-5-(3-methoxyoxetan-3-yl)-1H-pyrazol-3-yl)sulfonyl)acetamide, potassium salt]	5 to 10
N#Cc1cc(-c2ccc3c(c2CC(=O)NS(=O)(=O)c2cnn(C4CC4)c2)CCC3)ccn1 [Example 30, 2-(5-(2-Cyanopyridin-4-yl)-2,3-dihydro-H-inden-4-yl)-N-((1-cyclopropyl-1H-pyrazol-4-yl)sulfonyl)acetamide]	5 to 10
COc1cc(-c2ccc3c(c2CC(=O)NS(=O)(=O)c2cnn(C4CC4)n2)CCC3)ccn1 [Example 5, N-((2-Cyclopropyl-2H-1,2,3-triazol-4-yl)sulfonyl)-2-(5-(2-methoxypyridin-4-yl)-2,3-dihydro-1H-inden-4-yl)acetamide]	5 to 10
CC(C)c1cc(F)cc(-c2ccnc(C#N)c2)c1CC(=O)NS(=O)(=O)c1cnn(C2CC2)c1 [Example 9, 2-(2-(2-Cyanopyridin-4-yl)-4-fluoro-6-isopropylphenyl)-N-((1-cyclopropyl-1H-pyrazol-4-yl)sulfonyl)acetamide]	5 to 10
CC(C)c1cc(F)cc(-c2ccnc(C#N)c2)c1CC(=O)NS(=O)(=O)c1cnn(C2CC2)n1 [Example 7, 2-(2-(2-Cyanopyridin-4-yl)-4-fluoro-6-isopropylphenyl)-N-((2-cyclopropyl-2H-1,2,3-triazol-4-yl)sulfonyl)acetamide]	5 to 10
O=C(Cc1c2c(cc3c1CCC3)CCC2)NS(=O)(=O)c1ccn(C2CC2)n1 [Example 19, N-((1-Cyclopropyl-1H-pyrazol-3-yl)sulfonyl)-2-(1,2,3,5,6,7-hexahydro-s-indacen-4-yl)acetamide]	5 to 10
CC(C)c1cc(F)cc(-c2cccnc2)c1CC(=O)NS(=O)(=O)c1cn(C2CC2)cn1 [Example 6, N-((1-Cyclopropyl-1H-imidazol-4-yl)sulfonyl)-2-(4-fluoro-2-isopropyl-6-(pyridin-3-yl)phenyl)acetamide]	5 to 10
CC(C)c1cc(F)cc(C(C)C)c1CC(=O)NS(=O)(=O)c1ncn(C2CC2)n1 [Example 25, N-((1-Cyclopropyl-H-1,2,4-triazol-3-yl)sulfonyl)-2-(4-fluoro-2,6-diisopropylphenyl)acetamide]	5 to 10
COc1cc(-c2cc(F)cc(C(C)C)c2C(O)C(=O)NS(=O)(=O)c2cnn(C3CC3)c2)ccn1 (stereo not drawn) [Example 10, N-((1-Cyclopropyl-1H-pyrazol-4-yl)sulfonyl)-2-(4-fluoro-2-isopropyl-6-(2-methoxypyridin-4-yl)phenyl)-2-hydroxyacetamide]	5 to 10
COc1cc(-c2cc(F)cc(C(C)C)c2CC(=O)NS(=O)(=O)c2cn(C3CC3)cn2)ccn1 [Example 3, N-((1-Cyclopropyl-1H-imidazol-4-yl)sulfonyl)-2-(4-fluoro-2-isopropyl-6-(2-methoxypyridin-4-yl)phenyl)acetamide]	1 to 5
